Data on two compounds can be found in article PMC9822769, “The Strange Case: The Unsymmetric Cisplatin-Based Pt(IV) Prodrug [Pt(CH3COO)Cl2(NH3)2(OH)] Exhibits Higher Cytotoxic Activity with respect to Its Symmetric Congeners due to Carrier-Mediated Cellular Uptake” (Bioinorganic Chemistry and Applications, 2022).

The subject of experiment [1] is panel of human cancer cell lines. Description: Antiproliferative activity, panel of human cancer cell lines (average). It counts as cell-based. The following applies: 72 h; for IC50: wild cell panel. How it is done: The compounds under investigation were tested on a panel of commercial human cancer cell lines: ovarian endometrioid adenocarcinoma A2780 (ICLC HTL98008), its cisplatin-resistant variant A2780cisR (ECACC 93112517), colon carcinoma HCT 116 (ECACC 91091005), breast invasive ductal carcinoma MCF7 (ECACC 86012803), embryonal carcinoma NTERA-2 clone D1 (also known as NT2/D1, ICLC HTL97025), and lung adenocarcinoma A549 (ICLC HTL03001). Furthermore, a cell line derived from the pleural effusion of a patient with untreated malignant pleural mesothelioma (MPM) was added to the panel, namely, MM98 (sarcomatoid phenotype). Commercial cells were purchased from the European Collection of Authenticated Cell Cultures (ECACC, UK) or the Interlab Cell Line Collection (ICLC, Genoa, Italy), while the MM98 cell line was obtained from the Pathology Unit of the National Hospital of Alessandria (Italy).
The following media were used to grow the cells: RPMI 1640 (for A2780, A2780cisR, NT2/D1, and A549 cells), DMEM (for MCF7 cells), DMEM supplemented with nonessential amino acids (for MM98 cells), and McCoy's 5A (for HCT 116 cells). […]
To assess the growth inhibition of the compounds under investigation, a cell viability test (i.e., the resazurin reduction assay) was used. […] At the end of the treatment (72 h), viability was evaluated with 100 μg·mL^−1 resazurin (Acros Chemicals, France) in a fresh medium for 1 h at 37°C, and the amount of the reduced product, resorufin, was measured by fluorescence (excitation λ = 535 nm, emission λ = 595 nm) with a Tecan Infinite F200Pro plate reader (Tecan, Austria). In each experiment, cells were challenged with drug candidates at different concentrations, and the final data were calculated from at least three replicates of the same experiment performed in triplicate. The fluorescence of 8 wells containing a medium without cells was used as a blank. Fluorescence data were normalized to 100% cell viability for nontreated cells. […]

A further experiment concerns A2780cisR cells. Kind of experiment: Cellular Pt accumulation (accumulation ratio) in A2780cisR cells. Format: cell-based, human. The following applies: 4 h CT, 10 μM. How it is done: A2780 and A2780cisR cells were seeded in 10 mm Petri dishes and challenged with complexes under investigation (10 μM) in a complete medium for 4 h. At the end of the exposure, cells were washed three times with PBS, detached from Petri dishes using 0.05% trypsin 1x + 2% EDTA (HyClone, Thermo Fisher), and harvested in a completely fresh medium. An automatic cell counting device (Countess®, Life Technologies) was used to measure the number and mean diameter of each cell necessary to calculate the mean cellular (spherical) volume.
For the analysis of Pt accumulation, cells were transferred to a borosilicate glass tube and centrifuged at 1100 rpm for 5 min at room temperature. […]
The determination of the platinum content was performed by ICP-MS (Thermo Optek X Series 2). […] The instrument settings were optimized to produce the highest platinum sensitivity, and the most abundant isotopes of Pt and In (used as an internal standard) were quantified at m/z 195 and 115, respectively.
The quantity of Pt found in cells and normalized on cell number (cellular Pt accumulation) was expressed as ng of Pt per 10^6 cells. The mean cellular volume, calculated from the actual mean cell diameter measured for each sample (about 12 μm), was used to obtain the volume of 10^6 cells and, finally, the intracellular Pt concentration. […]

The structures appear in SMILES notation.

In the case of `N.N.[Cl][Pt][Cl]` [Cisplatin, (SP-4-2)-diamminedichloridoplatinum(II)], the half-inhibitory concentration (IC50) in experiment [1] was found to be 2720 nM. Further, the “Pt accumulation (AR) in A2780cisR compared with A2780” value with A2780cisR cells is reported as “much lower amounts of Pt than A2780”.
On to `CC(=O)[O][Pt]([OH])([Cl])[Cl].N.N` [Complex 2, (OC-6-44)-acetatodiamminedichloridohydroxidoplatinum(IV)], for which the “potency, times higher than those of 1 and 3” value in experiment [1] (panel of human cancer cell lines) is reported as 10–100 times. The compound further registered an IC50 in experiment [1] of 2910 nM.

The IC50 is the concentration that inhibits the measured activity by half. A high value points to lower potency.
